How the values were obtained:
[1] = system: mouse; details: Carcinogenicity; other; Oral; Feed; dose end: 18 month; group: systemic; systemic / in life observation / body weight / body weight
[2] = system: rat; details: Multigenerational reproductive toxicity study, sprague dawley, Oral, Feed, dose end: 2 generation
[3] = system: mouse; details: Carcinogenicity; other; Oral; Feed; dose end: 18 month; group: systemic; systemic / in life observation / body weight / body weight; remark: listed apart in the source
[4] = system: rabbit; details: Prenatal developmental toxicity study, new zealand white, Oral, Capsule, dose end: 18 GD
[5] = system: rabbit; details: Prenatal developmental toxicity study, new zealand white, Oral, Capsule, dose end: 18 GD; remark: listed apart in the source
[6] = system: rat; details: Combined chronic toxicity/carcinogenicity, other, Oral, Feed, dose end: 24 month, group: systemic
[7] = system: rat; details: Other (NonGuideline or Guideline Not Listed), sprague dawley, Oral, Gavage/Intubation, dose end: 20 PND, group: cannot be grouped
[8] = system: rat; details: Peri- and post-natal toxicity study (Segment III), sprague dawley, Oral, Gavage/Intubation, dose end: 54 PND
[9] = system: mouse; details: Subchronic oral toxicity in rodents, cd1, Feed, dose end: 13 week, group: systemic, systemic / hematology / leukocyte (wbc) count differential / leukocyte (wbc) + systemic / hematology / lymphocyte / lymphocyte + systemic / …
[10] = system: mouse; details: Carcinogenicity, cd1, Oral, Feed, dose end: 18 month
[11] = system: dog; details: Chronic toxicity, beagle, Oral, Feed, dose end: 60 week, group: cholinesterase
[12] = system: rat; details: Combined chronic toxicity/carcinogenicity, sprague dawley, Oral, Feed, dose end: 24 month, group: systemic
[13] = group: offspring, systemic / in life observation / body weight / offspring (pup) weight + systemic / in life observation / body weight / offspring (pup) …
[14] = group: parental, systemic / in life observation / body weight / body weight + systemic / in life observation / body weight / body weight gain + systemic / in…
[15] = group: parental, systemic / in life observation / body weight / body weight gain
[16] = group: developmental, systemic / in life observation / body weight / fetal weight
[17] = group: maternal, systemic / in life observation / clinical signs / anorexia + systemic / pathology gross / stomach / fluid contents + systemic / pathology …
[18] = group: maternal, systemic / in life observation / clinical signs / anorexia + systemic / in life observation / clinical signs / no feces + systemic / in life…
[19] = systemic / organ weight / kidney / absolute + systemic / organ weight / kidney / relative to body weight
[20] = developmental / developmental landmark / preputial separation / preputial separation
[21] = developmental / developmental malformation / general / [other] + developmental / developmental malformation / penis / [other] + …
[22] = group: developmental, developmental / developmental landmark / preputial separation / preputial separation
[23] = group: parental, systemic / organ weight / [other] / absolute + systemic / organ weight / adrenal gland / absolute + systemic / organ weight / epididymis / …
[24] = group: cholinesterase, cholinesterase / cholinesterase / cholinesterase / brain cholinesterase (che) + cholinesterase / cholinesterase / cholinesterase / …
[25] = group: systemic, systemic / in life observation / body weight / body weight gain + systemic / in life observation / food consumption / food consumption + …
[26] = cholinesterase / cholinesterase / cholinesterase / erythrocyte cholinesterase (che) + cholinesterase / cholinesterase / cholinesterase / …
[27] = cholinesterase / cholinesterase / cholinesterase / plasma cholinesterase (che)
[28] = systemic / in life observation / body weight / body weight + systemic / in life observation / body weight / body weight gain + systemic / …

Question: How did the LEL [1] turn out when CC(C)([CH2][Sn]([CH2]C(C)(C)c1ccccc1)([CH2]C(C)(C)c1ccccc1)[O][Sn]([CH2]C(C)(C)c1ccccc1)([CH2]C(C)(C)c1ccccc1)[CH2]C(C)(C)c1ccccc1)c1ccccc1 [Fenbutatin oxide] was run?
Answer: Its LEL is 45 mg/kg/day.

Question: And the LOAEL [1]?
Answer: Its LOAEL is 45 mg/kg/day.

Question: And the NEL [1]?
Answer: The NEL was 15 mg/kg/day.

Question: And the NOAEL [1]?
Answer: The NOAEL was 15 mg/kg/day.

Question: And the LEL ([2]; group: offspring, systemic / in life observation / body weight / offspring (pup) weight)?
Answer: Its LEL is 5.92 mg/kg/day.

Question: And the LOAEL [2, 13]?
Answer: The LOAEL was 17.4 mg/kg/day.

Question: And the NEL [2, 13]?
Answer: The NEL was 3.18 mg/kg/day.

Question: And the NOAEL [2, 13]?
Answer: Its NOAEL is 5.2 mg/kg/day.

Question: And the LOAEL [2, 14]?
Answer: The LOAEL was 30 mg/kg/day.

Question: And the NOAEL [2, 14]?
Answer: Its NOAEL is 14.8 mg/kg/day.

Question: And the LEL [2, 15]?
Answer: Its LEL is 2.39 mg/kg/day.

Question: And the NEL [2, 15]?
Answer: Its NEL is less than 2.39 mg/kg/day.

Question: And the LEL [3]?
Answer: Its LEL is 45 mg/kg/day.

Question: What about the LOAEL [3] of the same molecule?
Answer: The LOAEL was 45 mg/kg/day.

Question: And the NEL [3]?
Answer: The NEL was 15 mg/kg/day.

Question: What about the NOAEL [3] of the same molecule?
Answer: Its NOAEL is 15 mg/kg/day.

Question: What about the LEL [4, 16] of the same molecule?
Answer: The LEL was 10 mg/kg/day.

Question: And the LOAEL [4, 16]?
Answer: The LOAEL was 10 mg/kg/day.

Question: What about the NEL [4, 16] of the same molecule?
Answer: Its NEL is 5 mg/kg/day.

Question: And the NOAEL [4, 16]?
Answer: Its NOAEL is 5 mg/kg/day.

Question: And the LEL [4, 17]?
Answer: Its LEL is 5 mg/kg/day.

Question: And the LOAEL [4, 17]?
Answer: Its LOAEL is 5 mg/kg/day.

Question: What about the NEL [4, 17] of the same molecule?
Answer: Its NEL is 1 mg/kg/day.

Question: And the NOAEL [4, 17]?
Answer: Its NOAEL is 1 mg/kg/day.

Question: And the LEL [5, 16]?
Answer: Its LEL is 10 mg/kg/day.

Question: What about the LOAEL [5, 16] of the same molecule?
Answer: The LOAEL was 10 mg/kg/day.

Question: And the NEL [5, 16]?
Answer: Its NEL is 5 mg/kg/day.

Question: What about the NOAEL [5, 16] of the same molecule?
Answer: The NOAEL was 5 mg/kg/day.

Question: And the LEL [5, 18]?
Answer: The LEL was 5 mg/kg/day.

Question: And the LOAEL [5, 18]?
Answer: Its LOAEL is 5 mg/kg/day.

Question: And the NEL [5, 18]?
Answer: The NEL was 1 mg/kg/day.

Question: And the NOAEL [5, 18]?
Answer: The NOAEL was 1 mg/kg/day.

Question: What about the LOAEL ([6]; systemic / clinical chemistry / alkaline phosphatase (alp/alk) / alkaline phosphatase (alp/alk)) of the same molecule?
Answer: Its LOAEL is 15 mg/kg/day.

Question: And the NOAEL ([6]; systemic / clinical chemistry / alkaline phosphatase (alp/alk) / alkaline phosphatase (alp/alk) + systemic / clinical chemistry / urea …)?
Answer: The NOAEL was 5 mg/kg/day.

Question: And the LEL [6, 19]?
Answer: The LEL was 2.5 mg/kg/day.

Question: And the NEL [6, 19]?
Answer: Its NEL is less than 2.5 mg/kg/day.

Question: Which LEL [7, 20] does the source give for CC(C)C(=O)Nc1ccc([N+](=O)[O-])c(C(F)(F)F)c1 [Flutamide] here?
Answer: The LEL was 0.4 mg/kg/day.

Question: And the NEL [7, 20]?
Answer: Its NEL is less than 0.4 mg/kg/day.

Question: What about the LOAEL [7, 21] of the same molecule?
Answer: The LOAEL was greater than 10 mg/kg/day.

Question: And the NOAEL [7, 21]?
Answer: The NOAEL was no less than 10 mg/kg/day.

Question: What about the LEL [8, 22] of the same molecule?
Answer: Its LEL is 25 mg/kg/day.

Question: What about the LOAEL [8, 22] of the same molecule?
Answer: Its LOAEL is greater than 50 mg/kg/day.

Question: What about the NEL [8, 22] of the same molecule?
Answer: The NEL was less than 25 mg/kg/day.

Question: What about the NOAEL [8, 22] of the same molecule?
Answer: The NOAEL was no less than 50 mg/kg/day.

Question: And the LEL [8, 23]?
Answer: The LEL was 25 mg/kg/day.

Question: And the LOAEL [8, 23]?
Answer: Its LOAEL is greater than 50 mg/kg/day.

Question: What about the NEL [8, 23] of the same molecule?
Answer: Its NEL is less than 25 mg/kg/day.

Question: And the NOAEL [8, 23]?
Answer: The NOAEL was no less than 50 mg/kg/day.

Question: With COc1cc(OC)nc(NC(=O)NS(=O)(=O)c2cc(NC=O)ccc2C(=O)N(C)C)n1 [Foramsulfuron] as the molecule, how does the LEL [9] read?
Answer: The LEL was 1000 mg/kg/day.

Question: What about the LOAEL [9] of the same molecule?
Answer: The LOAEL was greater than 1000 mg/kg/day.

Question: What about the NEL [9] of the same molecule?
Answer: The NEL was 498 mg/kg/day.

Question: And the NOAEL [9]?
Answer: The NOAEL was no less than 1000 mg/kg/day.

Question: Which results are given for CCOP(=S)(OCC)Oc1nc(Cl)n(C(C)C)n1 [Isazofos]?
Answer: LEL [10, 24]: 4.5 mg/kg/day; LOAEL [10, 24]: 4.5 mg/kg/day; NEL [10, 24]: 0.15 mg/kg/day; NOAEL [10, 24]: 0.15 mg/kg/day; LEL [10, 25]: 37.5 mg/kg/day; LOAEL [10, 25]: 37.5 mg/kg/day; NEL [10, 25]: 4.5 mg/kg/day; NOAEL [10, 25]: 4.5 mg/kg/day; LOAEL [11, 26]: > 1.61 mg/kg/day; NOAEL [11, 26]: ≥ 1.61 mg/kg/day; LEL [11, 27]: 0.0015 mg/kg/day; NEL [11, 27]: < 0.0015 mg/kg/day; LOAEL ([12]; systemic / in life observation / body weight / body weight + systemic / in life observation / body weight / body weight gain): 10 mg/kg/day; LEL [12, 28]: 10 mg/kg/day; NEL [12, 28]: 0.05 mg/kg/day; NOAEL [12, 28]: 0.05 mg/kg/day

From EPA's ToxRefDB 2
